In patent publication US20260166128A1, “HUMAN AMYLIN ANALOG, AND DERIVATIVE THEREOF AND USE THEREOF” (priority 2022, published 2026):
Numbered stars: 1 amine (or outer) side, 2 acyl side, 3 side chain; on linkers, the order of the positions; unused ones are H or OH. Bridge positions count the residues as written; N and C are the ends. Square brackets hold non-standard residues; d marks the D form. Side chains are listed from the residue outwards. Peptide text beside a SMILES is read from it. * marks the point of attachment. C20 diacid = O=C(O)CCCCCCCCCCCCCCCCCCC(=O)*; γGlu = O=C(O)[C@H](CCC(=O)[*:2])N[*:1]; Hyp = O=C(O)[C@@H]1C[C@@H](O)CN1; Aze = O=C(O)[C@@H]1CCN1

Columns and labels:
human amylin receptor = target: T1, human amylin receptor (Homo sapiens, UniProt O60896+P30988); experiment: Luciferase assay of amylin derivatives in amylin receptor/CRE-luc CHO cell line; assay type: cell-based; conditions: CHO-K1/Ga15/AMY3 CRE-luc cells, 24 hours incubation, F12 medium containing 10% FBS; read-out: EC50
T1 construct: host or cells: CHO-K1/Ga15/AMY3 cells, further stably transfected with a CRE-luciferase plasmid
T1 sequence (P30988 25-474): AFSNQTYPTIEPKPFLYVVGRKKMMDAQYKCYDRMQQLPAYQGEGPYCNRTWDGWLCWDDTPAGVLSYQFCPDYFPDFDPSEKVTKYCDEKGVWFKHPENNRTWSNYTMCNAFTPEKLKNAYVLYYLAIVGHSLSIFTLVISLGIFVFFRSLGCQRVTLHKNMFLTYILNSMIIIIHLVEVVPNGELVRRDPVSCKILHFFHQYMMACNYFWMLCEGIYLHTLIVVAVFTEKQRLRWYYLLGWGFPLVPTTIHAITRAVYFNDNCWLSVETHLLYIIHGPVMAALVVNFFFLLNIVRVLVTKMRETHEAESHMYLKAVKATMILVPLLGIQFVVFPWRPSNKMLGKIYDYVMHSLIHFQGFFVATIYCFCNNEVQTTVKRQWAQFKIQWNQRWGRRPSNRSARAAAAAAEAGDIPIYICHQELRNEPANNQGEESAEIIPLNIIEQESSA
T1 sequence (O60896 24-148 partner): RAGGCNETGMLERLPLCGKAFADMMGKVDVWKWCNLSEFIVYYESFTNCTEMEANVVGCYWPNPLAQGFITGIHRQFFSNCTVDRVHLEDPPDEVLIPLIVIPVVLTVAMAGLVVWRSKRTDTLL
Protocol: The experiment was intended to detect the activity or efficacy of the amylin derivatives on a human amylin receptor in vitro by luciferase assay.
50 μL of growth medium (F12 medium containing 10% FBS) was added into each well of a white 96-well plate, and the stably transfected amylin/CRE-lue CHO cells were inoculated into the white 96-well plate at a density of about 20,000 cells/well for activity determination.

[1] = Freeze-thaw stability of derivatives (freeze-thaw yield by liquid chromatography); assay type: physicochemical; conditions: for Freeze storage yield: concentration of polypeptide after freezing and thawing / concentration before, by liquid chromatography, −20° C. overnight; for Dissolution property: appearance after dissolution at 0.2 mg/ml in 20 mM phosphate buffer solution (PB) (pH 7.0); for Freeze storage property: appearance after overnight storage at −20° C. and thawing to room temperature, 0.2 mg/ml in 20 mM PB (pH 7.0)
Procedure, shortened: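 Freeze-thaw yield is the ratio of peptide concentration after versus before one overnight −20° C freeze and room-temperature thaw, both quantified by RP-HPLC of supernatant after centrifugation. Samples were 0.2 mg/ml freeze-dried derivative in 20 mM PB, pH 7.0.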

Row | EC50 (human amylin receptor) | Freeze storage yield [1] | Dissolution property [1] | Freeze storage property [1] | Structure (SMILES)
1 | 0.03 nM | 96.53% | Clear | Clear | CC[C@H](C)[C@H](NC(=O)[C@@H]1CCCN1C(=O)[C@H](CCCCNC(=O)CC[C@H](NC(=O)CCCCCCCCCCCCCCCCCCC(=O)O)C(=O)O)NC(=O)[C@H](CC(C)C)NC(=O)[C@H](CC(N)=O)NC(=O)[C@H](CC(N)=O)NC(=O)[C@H](CO)NC(=O)[C@H](CO)NC(=O)[C@H](Cc1c[nH]cn1)NC(=O)[C@H](CCCNC(=N)N)NC(=O)[C@H](CC(C)C)NC(=O)[C@H](Cc1ccccc1)NC(=O)[C@H](CC(=O)O)NC(=O)[C@H](C)NC(=O)[C@H](CC(C)C)NC(=O)[C@H](CCCNC(=N)N)NC(=O)[C@H](CCC(N)=O)NC(=O)[C@@H](NC(=O)[C@H](C)NC(=O)[C@@H]1CSSC[C@H](NC(=O)[C@@H](N)CCCNC(=N)N)C(=O)N[C@@H](CC(N)=O)C(=O)N[C@@H]([C@@H](C)O)C(=O)N[C@@H](C)C(=O)N[C@@H]([C@@H](C)O)C(=O)N1)[C@@H](C)O)C(=O)N[C@@H](CC(C)C)C(=O)N1CCC[C@H]1C(=O)N1CCC[C@H]1C(=O)N[C@H](C(=O)N[C@@H](CC(N)=O)C(=O)N[C@H](C(=O)NCC(=O)N[C@@H](CO)C(=O)N[C@@H](CC(N)=O)C(=O)N[C@H](C(=O)N1C[C@H](O)C[C@H]1C(N)=O)[C@@H](C)O)C(C)C)[C@@H](C)O [PD052] (H-RCNTATCATQRLADFLRHSSNNLK([γGlu-C20 diacid])PILPPTNVGSNT[Hyp]-NH2; disulfide 2-7 (inferred); N-terminus assumed)
2 | 0.246 nM | 104.35% | Clear | Clear | CC[C@H](C)[C@H](NC(=O)[C@@H]1CCCN1C(=O)[C@H](CCCCNC(=O)CC[C@H](NC(=O)CCCCCCCCCCCCCCCCCCC(=O)O)C(=O)O)NC(=O)[C@H](CC(C)C)NC(=O)[C@H](CC(N)=O)NC(=O)[C@H](CC(N)=O)NC(=O)[C@H](CO)NC(=O)[C@H](CO)NC(=O)[C@H](Cc1c[nH]cn1)NC(=O)[C@H](CCCNC(=N)N)NC(=O)[C@H](CC(C)C)NC(=O)[C@H](Cc1ccccc1)NC(=O)[C@H](CC(=O)O)NC(=O)[C@H](C)NC(=O)[C@H](CC(C)C)NC(=O)[C@H](CCCNC(=N)N)NC(=O)[C@H](CCC(N)=O)NC(=O)[C@@H](NC(=O)[C@H](C)NC(=O)[C@@H]1CSSC[C@H](NC(=O)[C@@H](N)CCCNC(=N)N)C(=O)N[C@@H](CC(N)=O)C(=O)N[C@@H]([C@@H](C)O)C(=O)N[C@@H](C)C(=O)N[C@@H]([C@@H](C)O)C(=O)N1)[C@@H](C)O)C(=O)N[C@@H](CC(C)C)C(=O)N1CCC[C@H]1C(=O)N1CCC[C@H]1C(=O)N[C@H](C(=O)N[C@@H](CC(N)=O)C(=O)N[C@H](C(=O)NCC(=O)N[C@@H](CO)C(=O)N[C@@H](CC(N)=O)C(=O)N[C@H](C(=O)N1CC[C@H]1C(N)=O)[C@@H](C)O)C(C)C)[C@@H](C)O [PD060] (H-RCNTATCATQRLADFLRHSSNNLK([γGlu-C20 diacid])PILPPTNVGSNT[Aze]-NH2; disulfide 2-7 (inferred))
3 | 0.044 nM | 93.44% | Clear | Clear | CC[C@H](C)[C@H](NC(=O)[C@@H]1CCCN1C(=O)CNC(=O)[C@H](Cc1ccccc1)NC(=O)[C@H](CC(N)=O)NC(=O)[C@H](CC(N)=O)NC(=O)[C@H](CO)NC(=O)[C@H](CO)NC(=O)[C@H](Cc1c[nH]cn1)NC(=O)[C@H](CCCNC(=N)N)NC(=O)[C@H](CC(C)C)NC(=O)[C@H](Cc1ccccc1)NC(=O)[C@H](CCC(=O)O)NC(=O)[C@H](C)NC(=O)[C@H](CC(C)C)NC(=O)[C@H](CCCNC(=N)N)NC(=O)[C@H](CCC(N)=O)NC(=O)[C@@H](NC(=O)[C@H](C)NC(=O)[C@@H]1CSSC[C@H](NC(=O)[C@@H](N)CCCCNC(=O)CC[C@H](NC(=O)CCCCCCCCCCCCCCCCCCC(=O)O)C(=O)O)C(=O)N[C@@H](CC(N)=O)C(=O)N[C@@H]([C@@H](C)O)C(=O)N[C@@H](C)C(=O)N[C@@H]([C@@H](C)O)C(=O)N1)[C@@H](C)O)C(=O)N[C@@H](CC(C)C)C(=O)N1CCC[C@H]1C(=O)N1CCC[C@H]1C(=O)N[C@H](C(=O)N[C@@H](CC(N)=O)C(=O)N[C@H](C(=O)NCC(=O)N[C@@H](CO)C(=O)N[C@@H](CC(N)=O)C(=O)N[C@H](C(=O)N1CCC[C@H]1C(N)=O)[C@@H](C)O)C(C)C)[C@@H](C)O [PD066]

The remaining lines, values behind:

Row | Structure (SMILES) | EC50 (human amylin receptor) | Freeze storage yield [1] | Dissolution property [1] | Freeze storage property [1]
4 | CC[C@H](C)[C@H](NC(=O)[C@@H]1CCCN1C(=O)[C@H](CCCCNC(=O)CC[C@H](NC(=O)CCCCCCCCCCCCCCCCCCC(=O)O)C(=O)O)NC(=O)[C@H](CC(C)C)NC(=O)[C@H](CC(N)=O)NC(=O)[C@H](CC(N)=O)NC(=O)[C@H](CO)NC(=O)[C@H](CO)NC(=O)[C@H](Cc1c[nH]cn1)NC(=O)[C@H](CCCNC(=N)N)NC(=O)[C@H](CC(C)C)NC(=O)[C@H](Cc1ccccc1)NC(=O)[C@H](CCC(=O)O)NC(=O)[C@H](C)NC(=O)[C@H](CC(C)C)NC(=O)[C@H](CCCNC(=N)N)NC(=O)[C@H](CCC(N)=O)NC(=O)[C@@H](NC(=O)[C@H](C)NC(=O)[C@@H]1CSSC[C@H](NC(=O)[C@@H](N)CCCNC(=N)N)C(=O)N[C@@H](CC(N)=O)C(=O)N[C@@H]([C@@H](C)O)C(=O)N[C@@H](C)C(=O)N[C@@H]([C@@H](C)O)C(=O)N1)[C@@H](C)O)C(=O)N[C@@H](CC(C)C)C(=O)N1CCC[C@H]1C(=O)N1CCC[C@H]1C(=O)N[C@H](C(=O)N[C@@H](CC(N)=O)C(=O)N[C@H](C(=O)NCC(=O)N[C@@H](CO)C(=O)N[C@@H](CC(N)=O)C(=O)N[C@H](C(=O)N1CCC[C@H]1C(N)=O)[C@@H](C)O)C(C)C)[C@@H](C)O [PD047] (H-RCNTATCATQRLAEFLRHSSNNLK([γGlu-C20 diacid])PILPPTNVGSNTP-NH2; disulfide 2-7 (inferred); N-terminus assumed) | 0.073 nM | 0.00% |  | 
5 | CC[C@H](C)[C@H](NC(=O)[C@@H]1CCCN1C(=O)[C@H](CCCCNC(=O)CC[C@H](NC(=O)CCCCCCCCCCCCCCCCCCC(=O)O)C(=O)O)NC(=O)[C@H](CC(C)C)NC(=O)[C@H](CC(N)=O)NC(=O)[C@H](CC(N)=O)NC(=O)[C@H](CO)NC(=O)[C@H](CO)NC(=O)[C@H](Cc1c[nH]cn1)NC(=O)[C@H](CCCNC(=N)N)NC(=O)[C@H](CC(C)C)NC(=O)[C@H](Cc1ccccc1)NC(=O)[C@H](CCC(=O)O)NC(=O)[C@H](C)NC(=O)[C@H](CC(C)C)NC(=O)[C@H](CCCNC(=N)N)NC(=O)[C@H](CCC(N)=O)NC(=O)[C@@H](NC(=O)[C@H](C)NC(=O)[C@@H]1CSSC[C@H](N)C(=O)N[C@@H](CC(N)=O)C(=O)N[C@@H]([C@@H](C)O)C(=O)N[C@@H](C)C(=O)N[C@@H]([C@@H](C)O)C(=O)N1)[C@@H](C)O)C(=O)N[C@@H](CC(C)C)C(=O)N1CCC[C@H]1C(=O)N1CCC[C@H]1C(=O)N[C@H](C(=O)N[C@@H](CC(N)=O)C(=O)N[C@H](C(=O)NCC(=O)N[C@@H](CO)C(=O)N[C@@H](CC(N)=O)C(=O)N[C@H](C(=O)N1CCC[C@H]1C(N)=O)[C@@H](C)O)C(C)C)[C@@H](C)O [PD049] (H-CNTATCATQRLAEFLRHSSNNLK([γGlu-C20 diacid])PILPPTNVGSNTP-NH2; disulfide 1-6 (inferred); N-terminus assumed) | 0.215 nM | 99.00% | Clear | Clear
6 | CC[C@H](C)[C@H](NC(=O)[C@@H]1CCCN1C(=O)[C@H](CCCCNC(=O)CC[C@H](NC(=O)CCCCCCCCCCCCCCCCCCC(=O)O)C(=O)O)NC(=O)[C@H](CC(C)C)NC(=O)[C@H](CC(N)=O)NC(=O)[C@H](CC(N)=O)NC(=O)[C@H](CO)NC(=O)[C@H](CO)NC(=O)[C@H](Cc1c[nH]cn1)NC(=O)[C@H](CCCNC(=N)N)NC(=O)[C@H](CC(C)C)NC(=O)[C@H](Cc1ccccc1)NC(=O)[C@H](CC(=O)O)NC(=O)[C@H](C)NC(=O)[C@H](CC(C)C)NC(=O)[C@H](CCCNC(=N)N)NC(=O)[C@H](CCC(N)=O)NC(=O)[C@@H](NC(=O)[C@H](C)NC(=O)[C@@H]1CSSC[C@H](N)C(=O)N[C@@H](CC(N)=O)C(=O)N[C@@H]([C@@H](C)O)C(=O)N[C@@H](C)C(=O)N[C@@H]([C@@H](C)O)C(=O)N1)[C@@H](C)O)C(=O)N[C@@H](CC(C)C)C(=O)N1CCC[C@H]1C(=O)N1CCC[C@H]1C(=O)N[C@H](C(=O)N[C@@H](CC(N)=O)C(=O)N[C@H](C(=O)NCC(=O)N[C@@H](CO)C(=O)N[C@@H](CC(N)=O)C(=O)N[C@H](C(=O)N1CCC[C@H]1C(N)=O)[C@@H](C)O)C(C)C)[C@@H](C)O [PD050] (H-CNTATCATQRLADFLRHSSNNLK([γGlu-C20 diacid])PILPPTNVGSNTP-NH2; disulfide 1-6 (inferred)) | 0.098 nM | 99.66% | Clear | Clear
